Results from patent US9944602B2, “Piperidinone herbicides” (E. I. DU PONT DE NEMOURS AND COMPANY, priority 2014, dated 2018).

What was measured:
Format in all cases: in vivo
[1] = test system: barnyardgrass (Echinochloa crus-galli); test: Test A preemergence barnyardgrass; details: 0 to 100 scale, 0 no effect, 100 complete control
How it was run: (§1)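 Directed soil spray at planting gives preemergence data; foliar application to one- to two-leaf plants gives postemergence data. Response is visual injury relative to untreated controls about 10 d after treatment, scored 0–100.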

[2] = test system: kochia (Kochia scoparia); test: Test A preemergence kochia; details: 0 to 100 scale, 0 no effect, 100 complete control
How it was run: as §1

[3] = test system: ragweed (common ragweed, Ambrosia elatior); test: Test A preemergence ragweed; details: 0 to 100 scale, 0 no effect, 100 complete control
How it was run: as §1

[4] = test system: ryegrass, Italian (Italian ryegrass, Lolium multiflorum); test: Test A preemergence ryegrass, Italian; details: 0 to 100 scale, 0 no effect, 100 complete control
How it was run: as §1

[5] = test system: foxtail, giant (giant foxtail, Setaria faberii); test: Test A preemergence foxtail, giant; details: 0 to 100 scale, 0 no effect, 100 complete control
How it was run: as §1

[6] = test system: pigweed (Amaranthus retroflexus); test: Test A preemergence pigweed; details: 0 to 100 scale, 0 no effect, 100 complete control
How it was run: as §1

[7] = test system: barnyardgrass (Echinochloa crus-galli); test: Test A postemergence barnyardgrass; details: 0 to 100 scale, 0 is no effect, 100 is complete control
How it was run: as §1

[8] = test system: kochia (Kochia scoparia); test: Test A postemergence kochia; details: 0 to 100 scale, 0 is no effect, 100 is complete control
How it was run: as §1

[9] = test system: ragweed (common ragweed, Ambrosia elatior); test: Test A postemergence ragweed; details: 0 to 100 scale, 0 is no effect, 100 is complete control
How it was run: as §1

[10] = test system: ryegrass, Italian (Italian ryegrass, Lolium multiflorum); test: Test A postemergence ryegrass, Italian; details: 0 to 100 scale, 0 is no effect, 100 is complete control
How it was run: as §1

[11] = test system: foxtail, giant (giant foxtail, Setaria faberii); test: Test A postemergence foxtail, giant; details: 0 to 100 scale, 0 is no effect, 100 is complete control
How it was run: as §1

[12] = test system: pigweed (Amaranthus retroflexus); test: Test A postemergence pigweed; details: 0 to 100 scale, 0 is no effect, 100 is complete control
How it was run: as §1

[13] = test system: wheat (Triticum aestivum); test: Test A postemergence wheat; details: 0 to 100 scale, 0 is no effect, 100 is complete control
How it was run: as §1

[14] = test system: corn (Zea mays); test: Test A postemergence corn; details: 0 to 100 scale, 0 is no effect, 100 is complete control
How it was run: as §1

[15] = test system: blackgrass (Alopecurus myosuroides); test: Test A postemergence blackgrass; details: 0 to 100 scale, 0 is no effect, 100 is complete control
How it was run: as §1

[16] = test system: galium (catchweed bedstraw, Galium aparine); test: Test A postemergence galium; details: 0 to 100 scale, 0 is no effect, 100 is complete control
How it was run: as §1

[17] = test system: rice (Oryza sativa); test: Test B flooded paddy test rice; details: Table B, Flood, 250 g ai/ha, scale 0 to 100
How it was run: (§2)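 Visual injury relative to controls was scored after 13 to 15 d in the greenhouse. Treatment was by adding compound straight to flood water 3 cm deep, maintained for the whole test, on plants at the 2-leaf stage.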

[18] = test system: sedge, umbrella (small-flower umbrella sedge, Cyperus difformis); test: Test B flooded paddy test sedge, umbrella; details: Table B, Flood, 250 g ai/ha, scale 0 to 100
How it was run: as §2

[19] = test system: ducksalad (Heteranthera limosa); test: Test B flooded paddy test ducksalad; details: Table B, Flood, 250 g ai/ha, scale 0 to 100
How it was run: as §2

[20] = test system: barnyardgrass (Echinochloa crus-galli); test: Test B flooded paddy test barnyardgrass; details: Table B, Flood, 250 g ai/ha, scale 0 to 100
How it was run: as §2

Row | SMILES | Barnyardgrass plant response rating ([1]; 125 g ai/ha) | Barnyardgrass plant response rating ([1]; 500 g ai/ha) | Kochia plant response rating ([2]; 125 g ai/ha) | Kochia plant response rating ([2]; 500 g ai/ha) | Ragweed plant response rating ([3]; 125 g ai/ha) | Ragweed plant response rating ([3]; 500 g ai/ha) | Ryegrass, Italian plant response rating ([4]; 125 g ai/ha) | Ryegrass, Italian plant response rating ([4]; 500 g ai/ha) | Foxtail, Giant plant response rating ([5]; 125 g ai/ha) | Foxtail, Giant plant response rating ([5]; 500 g ai/ha) | Pigweed plant response rating ([6]; 125 g ai/ha) | Pigweed plant response rating ([6]; 500 g ai/ha) | Plant response rating, Barnyardgrass ([7]; 125 g ai/ha) | Plant response rating, Barnyardgrass ([7]; 500 g ai/ha) | Plant response rating, Kochia ([8]; 125 g ai/ha) | Plant response rating, Kochia ([8]; 500 g ai/ha) | Plant response rating, Ragweed ([9]; 125 g ai/ha) | Plant response rating, Ragweed ([9]; 500 g ai/ha) | Plant response rating, Ryegrass, Italian ([10]; 125 g ai/ha) | Plant response rating, Ryegrass, Italian ([10]; 500 g ai/ha) | further results
1 | O=C1NCC[C@@H](c2ccc(C(F)(F)F)cc2)[C@@H]1C(=O)Nc1ccc(F)c(F)c1F [Compound 55] | 0 | 0 | 0 | 0 | 0 | 0 | 0 | 0 | 0 | 0 | 0 | 0 | 0 | 0 | 0 | 0 | 0 | 0 | 0 | 0 | Plant response rating, Foxtail, Giant ([11]; 125 g ai/ha): 0; Plant response rating, Foxtail, Giant ([11]; 500 g ai/ha): 0; Plant response rating, Pigweed ([12]; 125 g ai/ha): 0; Plant response rating, Pigweed ([12]; 500 g ai/ha): 0; Plant response rating, Wheat ([13]; 125 g ai/ha): 0; Plant response rating, Wheat ([13]; 500 g ai/ha): 0; Plant response rating, Corn ([14]; 125 g ai/ha): 0; Plant response rating, Corn ([14]; 500 g ai/ha): 0; Plant response rating, Blackgrass ([15]; 125 g ai/ha): 0; Plant response rating, Blackgrass ([15]; 500 g ai/ha): 0; Plant response rating, Galium ([16]; 125 g ai/ha): 0; Plant response rating, Galium ([16]; 500 g ai/ha): 0; Plant response rating [17]: 0; Plant response rating [18]: 0; Plant response rating [19]: 0; Plant response rating [20]: 0
2 | O=C1NCC[C@@H](c2ccc(C(F)(F)F)cc2)[C@@H]1C(=O)Nc1cccc(F)c1F [Compound 23] | 30 | 70 | 0 | 40 | 0 | 60 | 0 | 20 | 30 | 80 | 0 | 0 | 20 | 70 | 20 | 50 | 0 | 0 | 0 | 20 | Plant response rating, Foxtail, Giant ([11]; 125 g ai/ha): 20; Plant response rating, Foxtail, Giant ([11]; 500 g ai/ha): 60; Plant response rating, Pigweed ([12]; 125 g ai/ha): 0; Plant response rating, Pigweed ([12]; 500 g ai/ha): 0; Plant response rating, Wheat ([13]; 125 g ai/ha): 0; Plant response rating, Wheat ([13]; 500 g ai/ha): 20; Plant response rating, Corn ([14]; 125 g ai/ha): 0; Plant response rating, Corn ([14]; 500 g ai/ha): 20; Plant response rating, Blackgrass ([15]; 125 g ai/ha): 0; Plant response rating, Blackgrass ([15]; 500 g ai/ha): 10; Plant response rating, Galium ([16]; 125 g ai/ha): 0; Plant response rating, Galium ([16]; 500 g ai/ha): 20; Plant response rating [17]: 0; Plant response rating [18]: 0; Plant response rating [19]: 0; Plant response rating [20]: 0
